The test system of experiment [1] is rat brain A1 and A2 receptors. To be noted: rat brain adenosine receptors, radioligand binding; cited from earlier work.
Experiment [2] has as its system ventricular cells cultured from chick embryos. Put plainly: Hypoxia-induced injury / preconditioning of cultured ventricular cells (% cells killed, CK released). The following applies: for Ability to replace preconditioning hypoxia (protection against injury by ninety-minute hypoxia; % cells killed, CK released): agent given for 5 min in place of preconditioning hypoxia, before 90-min hypoxia, adenosine 10 μM, R-PIA 10 μM; for Ability to replace preconditioning hypoxia (protection against injury by ninety-minute hypoxia; % cells killed, CK released) / Effect on protection by preconditioning hypoxia (% cells killed, CK released): CGS21680 1 μM; for Effect on protection by preconditioning hypoxia (% cells killed, CK released): agent present during five-minute preconditioning hypoxia, CSC 1 μM, 8-SPT 100 μM, isoproterenol 0.3 μM, forskolin 1 μM, BayK 8644 0.1 μM; for EC (maximal effect): Gallus gallus, agonist replacing preconditioning hypoxia, read-out: Concentration giving maximal preconditioning effect. Type of experiment: cell-based. On the procedure:
Ventricular cells were cultured from chick embryos 14 days in ovo, according to a previously described procedure (20, 27). Cells were plated at a density of 400,000 cells per ml and cultivated in a humidified 5% CO2 -95% air mixture at 37° C. […] For preconditioning studies, the medium was changed to a HEPES-buffered medium containing (mM) 139 NaCl, 4.7 KCl, 0.5 MgCl2, 0.9 CaCl2, 5 HEPES (N-2-hydroxyethylpiperazine-N'-2-ethanesulfonic acid) and 2% fetal bovine serum, pH=7.4, 37° C. before exposing cells to the various conditions at 37° C. Control cells were maintained in the HEPES-buffered media under room air. Hypoxia was produced by placing the cells in a hypoxic incubator (NuAire) where O2 was replaced by N2. The % O2 was monitored by both an oxygen Fyrite Gas Analyzer (Bacharach) and an oxygen analyzer (Model OX630, Engineered Systems & Designs). Preconditioning was induced by exposing the cells to five minutes of hypoxia, termed preconditioning hypoxia, prior to a second ninety-minute hypoxia. Cells not subjected to preconditioning were exposed to ninety minutes of hypoxia only (nonpreconditioned cells). The extracellular pH was similarly maintained at 7.4 by HEPES in both preconditioned and nonpreconditioned cells. Determination of basal level of cell injury was made after parallel incubation of control cells under normal % O2. For preconditioned and nonpreconditioned cells, determination of cell injury was made at the end of the ninety-minute hypoxic period.
The extent of hypoxia-induced injury to the ventricular cell was quantitatively determined by the percentages of cells killed and by the amount of creatine kinase (CK) released into the media. To quantitate the % cells killed, cells were exposed to a trypsin-EDTA Hanks' balanced salt solution for 10 minutes for detachment after the various treatment, followed by centrifugation (300 × g for 10 minutes) and resuspension in culture media for counting in a hemocytometer. Only live cells sedimented and the cells counted represented those that survived (29). None of the sedimented cells subsequently counted included trypan blue. […] There was no protein or CK in the culture media following a second 300 × g centrifugation of resuspended cells previously treated with trypsin-EDTA. […] In contrast, the trypsin-EDTA media from cells exposed to 90 minutes of hypoxia contained substantial amount of proteins (0.15±0.03 mg, n=9) and CK activity (16±3 unit/mg protein, n=8). […] Because trypsin may cause further proteolysis of proteins and CK, the amount of protein and CK retained by the damaged cells in the trypsin-EDTA media may not accurately reflect those associated with the damaged cells. In support of the notion that exposure to 90 minutes of hypoxia caused significant cell injury and loss of membrane integrity, there was also marked release of LDH (hypoxia-exposed cells, 35.5±2.7, unit/mg, n=8, ±S.E. vs. control cells, 6.1±0.4 unit/mg, n=8) and proteins (hypoxia-exposed cells, 0.15±0.03 mg, n=8 vs. control cells, 0.034±0.01 mg, n=8) from the cells incubated under prolonged hypoxia. Thus, the cell viability assay separated out the hypoxia-damaged from the control normoxia-exposed cells. […] The amount of CK was measured as enzyme activity (unit/mg), and increases in CK activity above the control level were determined. The percentage of cells killed was calculated as the number of cells obtained from the control group (representing cells not subjected to any hypoxia or drug treatment) minus the number of cells from the treatment group divided by number of cells in control group multiplied by 100%.
To investigate the role of adenosine in mediating the preconditioning effect, the ventricular cells, instead of being exposed to the brief hypoxia, were incubated with adenosine (10 μM) for 5 minutes prior to the ninety minute hypoxia. In adenosine-treated cells, media were replaced with adenosine-free media for ten minutes prior to a ninety-minute hypoxic exposure. […]

The test system is the same in experiment [3]. Put plainly: 45Ca uptake in cultured ventricular cells. Type of experiment: cell-based. The following applies: control 4.2±0.1, ±S.D. On the procedure: Determination of ^45 Ca uptake was made according to a modification of previously described method (20). Cultures were incubated with L-(3, 4, 5-^3 H, N)-leucine (152.2 Ci/mmol) for a 24 hour prior to ^45 Ca uptake. [^3 H] leucine incorporated into the cellular protein allowed normalization of ^45 Ca content to mg cell protein. After incubation with ^45 Ca-containing medium, cells were then washed free of ^45 Ca and solubilized for 2 hours with 1% sodium dodecyl sulfate and 10 mM sodium borate and the levels of ^3 H and ^45 Ca were determined. For all data comparing the effect of different agents on ^45 Ca uptake, one-way ANOVA analysis followed by group comparison with t-test was carried out at each time point of the ^45 Ca uptake. Cyclic AMP level was determined according to a previously described radioimmunoassay (27).

As for `COc1ccc(/C=C/c2nc3c(c(=O)n(C)c(=O)n3C)n2C)cc1OC` [32b], the “A1/A2 ratio (A2a receptor selectivity ratio)” value in experiment [1] is listed as 70.

For `COc1cc(/C=C/c2nc3c(c(=O)n(C)c(=O)n3C)n2C)cc(OC)c1O` [compound 35], the “A1/A2 ratio (A2a receptor selectivity ratio)” value in experiment [1] is listed as 19.

Turning to `COc1cc(/C=C/c2nc3c(c(=O)n(C)c(=O)n3C)n2C)cc(OC)c1OCCCCNC(=O)OC(C)(C)C` [compound 39], the “A1/A2 ratio (A2a receptor selectivity ratio)” value in experiment [1] is recorded as 42.

On to `COc1cc(/C=C/c2nc3c(c(=O)n(C)c(=O)n3C)n2C)cc(OC)c1OC/C=C/CN` [compound 40], for which the “A1/A2 ratio (A2a receptor selectivity ratio)” value in experiment [1] is reported as 28.

Regarding `CCCn1c(=O)c2c(nc(/C=C/c3cc(OC)cc(OC)c3)n2C)n(CCC)c1=O` [53b], the “A1/A2 ratio (A2a receptor selectivity ratio)” value in experiment [1] was 110.

Consider `Cn1c(=O)c2c(nc(/C=C/c3cccc(C(F)(F)F)c3)n2C)n(C)c1=O` [20b], for which the “A1/A2 ratio (A2a receptor selectivity ratio)” value in experiment [1] is recorded as 25.

Take `Cn1c(=O)c2c(nc(/C=C/c3cccc(N(C(=O)OC(C)(C)C)C(=O)OC(C)(C)C)c3)n2C)n(C)c1=O` [compound 26]: the “A1/A2 ratio (A2a receptor selectivity ratio)” value in experiment [1] is 15.

Take `C=CCn1c(=O)c2c(nc(/C=C/c3cc(OC)c(OC)c(OC)c3)n2C)n(CC=C)c1=O` [compound 46]: the “A1/A2 ratio (A2a receptor selectivity ratio)” value in experiment [1] was 13.

Turning to `COc1cc(/C=C/c2nc3c([nH]2)c(=O)n(C)c(=O)n3C)cc(OC)c1` [33a], the “A1/A2 ratio (A2a receptor selectivity ratio)” value in experiment [1] is reported as 25.

As for `Cn1c(=O)c2c(nc(/C=C/c3cccc(NC(=O)OC(C)(C)C)c3)n2C)n(C)c1=O` [compound 25], the “A1/A2 ratio (A2a receptor selectivity ratio)” value in experiment [1] is recorded as 30.

Consider `COc1cc(/C=C/c2nc3c(c(=O)n(C)c(=O)n3C)n2C)cc(OC)c1OCCCCN` [compound 38], for which the “A1/A2 ratio (A2a receptor selectivity ratio)” value in experiment [1] was 36.

For `COc1ccc(/C=C/c2nc3c(c(=O)n(C)c(=O)n3C)n2C)c(OC)c1OC` [43b], the “A1/A2 ratio (A2a receptor selectivity ratio)” value in experiment [1] was 34.

With `CCNC(=O)[C@H]1O[C@@H](n2cnc3c(N)nc(NCCc4ccc(CCC(=O)O)cc4)nc32)[C@H](O)[C@@H]1O` [CGS21680, 2-[4-(2-carboxyethyl)phenylethylamino]-5'-N-ethylcarboxiamidoadenosine], in experiment [2], the “Ability to replace preconditioning hypoxia (protection against injury by ninety-minute hypoxia; % cells killed, CK released)” value was “could not” and the “Effect on protection by preconditioning hypoxia (% cells killed, CK released)” value is listed as “attenuated the protection”. The molecule further had a 45Ca uptake in experiment [3] (after 90-second exposure to 45Ca-containing media, CGS21680 1 μM) of 5.8 ± 0.2 nmol/mg. For the same molecule, the “45Ca uptake, CGS21680 plus nifedipine” value in experiment [3] (after 90-second exposure to 45Ca, CGS21680 1 μM plus nifedipine 1 μM) worked out at 4.4 ± 0.1 nmol/mg.

For `Cn1c(=O)c2c(nc(/C=C/c3cc(F)cc(F)c3)n2C)n(C)c1=O` [34b], the “A1/A2 ratio (A2a receptor selectivity ratio)” value in experiment [1] is recorded as 230.

As to `Cn1c(=O)c2c(nc(/C=C/c3cccc(Cl)c3)n2C)n(C)c1=O` [compound 28, 8-(3-chlorostyryl)caffeine], the “Effect on R-PIA-induced preconditioning (% cells killed, CK released)” value in experiment [2] (CSC present during 5-min treatment with 10 μM R-PIA, P<0.01) is listed as “enhanced the preconditioning effect”. Further, in experiment [2], the “Ability to replace preconditioning hypoxia (protection against injury by ninety-minute hypoxia; % cells killed, CK released)” value is listed as “had no effect on the extent of injury” and the “Effect on protection by preconditioning hypoxia (% cells killed, CK released)” value is “increased protection”.

For `COc1cc(/C=C/c2nc3c(c(=O)n(C)c(=O)n3C)n2C)cc(OC)c1OC/C=C/CNC(C)=O` [compound 41], the “A1/A2 ratio (A2a receptor selectivity ratio)” value in experiment [1] was greater than 50.

For `COc1cc(/C=C/c2nc3c(c(=O)n(C)c(=O)n3C)n2C)cc(OC)c1OC` [44b], the “A1/A2 ratio (A2a receptor selectivity ratio)” value in experiment [1] is 70.

Consider `COc1ccc(/C=C/c2nc3c(c(=O)n(C)c(=O)n3C)n2C)cc1` [29b], for which, in experiment [1], the “A1/A2 ratio (A2a receptor selectivity ratio)” value is given as 44.

In the case of `CC(=O)Nc1cccc(/C=C/c2nc3c(c(=O)n(C)c(=O)n3C)n2C)c1` [compound 23], in experiment [1], the “A1/A2 ratio (A2a receptor selectivity ratio)” value is on record as 240.

With `COc1cc(/C=C/c2nc3c(c(=O)n(C)c(=O)n3C)n2C)cc(OC)c1OCc1ccccc1` [compound 37], the “A1/A2 ratio (A2a receptor selectivity ratio)” value in experiment [1] was 30.

Consider `Cn1c(=O)c2c(nc(/C=C/c3cccc([N+](=O)[O-])c3)n2C)n(C)c1=O` [21b], for which the “A1/A2 ratio (A2a receptor selectivity ratio)” value in experiment [1] is listed as 11.

Consider `COc1cc(/C=C/c2nc3c(c(=O)n(C)c(=O)n3C)n2C)cc(OC)c1` [33b], for which, in experiment [1], the “A1/A2 ratio (A2a receptor selectivity ratio)” value is on record as greater than 200.

Take `COc1cc(/C=C/c2nc3c(c(=O)n(C)c(=O)n3C)n2C)cc(OC)c1OC/C=C/CNC(=O)OC(C)(C)C` [compound 42]: the “A1/A2 ratio (A2a receptor selectivity ratio)” value in experiment [1] was greater than 40.

For `CNC(=O)[C@H]1O[C@@H](n2cnc3c(NCc4cccc(I)c4)nc(Cl)nc32)[C@H](O)[C@@H]1O` [C1-IB-MECA, 2-chloro-N^6-(3-iodobenzyl)adenosine-5'-N-methyluronamide], in experiment [2], the EC (maximal effect) is 0.1 µM; the “Ability to replace preconditioning hypoxia (protection against injury by ninety-minute hypoxia; % cells killed, CK released)” value is “can replace preconditioning hypoxia and simulate preconditioning”.

Turning to `Nc1ncnc2c1ncn2[C@@H]1O[C@H](CO)[C@@H](O)[C@H]1O` [Adenosine, adenosine], the “Ability to replace preconditioning hypoxia (protection against injury by ninety-minute hypoxia; % cells killed, CK released)” value in experiment [2] is “significant attenuation of the injury”.

Consider `COc1cc(/C=C/c2nc3c(c(=O)n(C)c(=O)n3C)n2C)cc(OC)c1OC(C)=O` [compound 36], for which, in experiment [1], the “A1/A2 ratio (A2a receptor selectivity ratio)” value is listed as 93.

With `COc1ccccc1/C=C/c1nc2c(c(=O)n(C)c(=O)n2C)n1C` [17b], in experiment [1], the “A1/A2 ratio (A2a receptor selectivity ratio)” value was 18.

As for `Cn1c(=O)c2c(nc(/C=C/c3cccc(F)c3)n2C)n(C)c1=O` [27b], the “A1/A2 ratio (A2a receptor selectivity ratio)” value in experiment [1] was 190.

As for `COc1cccc(/C=C/c2nc3c(c(=O)n(C)c(=O)n3C)n2C)c1` [19b], in experiment [1], the “A1/A2 ratio (A2a receptor selectivity ratio)” value is 64.

For the molecule `Cn1c(=O)c2c(nc(/C=C/c3cccc(N)c3)n2C)n(C)c1=O` [22b], the “A1/A2 ratio (A2a receptor selectivity ratio)” value in experiment [1] is on record as 30.

Regarding `OC[C@H]1O[C@@H](n2cnc3c(NC4CCCC4)nc(Cl)nc32)[C@H](O)[C@@H]1O` [CCPA], in experiment [2], the EC (maximal effect) was determined as 0.1 µM; the “Ability to replace preconditioning hypoxia (protection against injury by ninety-minute hypoxia; % cells killed, CK released)” value is “can replace preconditioning hypoxia and simulate preconditioning”.

Regarding `C[C@H](Cc1ccccc1)Nc1ncnc2c1ncn2[C@@H]1O[C@H](CO)[C@@H](O)[C@H]1O` [R-PIA, N^6 -R-phenyl-2-propyl adenosine], the “Ability to replace preconditioning hypoxia (protection against injury by ninety-minute hypoxia; % cells killed, CK released)” value in experiment [2] is “could substitute for preconditioning hypoxia and induce preconditioning”.

Regarding `Cn1c(=O)c2c(nc(/C=C/c3cccc(NC(=O)CCC(=O)O)c3)n2C)n(C)c1=O` [compound 24], the “A1/A2 ratio (A2a receptor selectivity ratio)” value in experiment [1] is 250.

These data come from patent publication US5859019A, “Methods for protecting against cardiac ischemia by administering adenosine A2a receptor antagonists” (priority 1997, dated 1999).
